Test results from paper PMC7156458, “Synthetic biology based construction of biological activity-related library of fungal decalin-containing diterpenoid pyrones” (Nature Communications, 2020).
Where two headings read alike, the source gives them in different places.

Legend:
MCF-7 cells = experiment: cell cytotoxic effects against MCF-7 cells (72 h), A490; format: cell-based, human; details: for viability at 0.1 µM / viability at 1 µM / viability at 10 µM: Homo sapiens, MCF7, 72 h, read-out: A490 (control =1) ave; for viability at 0.1 µM / viability at 1 µM / viability at 10 µM / A490 ave: MCF-7, 72 h
[1] = cytotoxicity in Drosophila l(2)mbn cells; format: cell-based; details: Drosophila, l(2)mbn cells (larval blood cell-derived)
Procedure: (§1) We screened the DDPs on the Drosophila assay system for cytotoxicity, inhibitory activity of innate immune signalling and insecticidal activity. The cytotoxicity of the DDPs was evaluated using two cell lines, embryonic macrophage-derived DL1 cells[58]–[60] and larval blood cell-derived l(2)mbn cells, and their IC50 values are listed in Supplementary Table 23.

l(2)mbn cells = experiment: cytotoxicity in Drosophila l(2)mbn cells; format: cell-based; details: for Luminescence Raw1: replicate 1; for Luminescence Raw2: replicate 2; for IC50: Drosophila melanogaster, cytotoxicity
Procedure: as §1

MAGI cells = experiment: cytotoxicity in the anti-HIV assay (CC50); format: cell-based; details: single determinations
[2] = 0.1 µM (DMSO 0.002%), control 1.064
[3] = 1 µM (DMSO 0.02%), control 1.104
[4] = 10 µM (DMSO 0.2%), control 1.049
[5] = replicate 1, relative to DMSO 1%, read-out: % viability, viability 1
[6] = replicate 2, relative to DMSO 1%, read-out: % viability, viability 2
[7] = average of two replicates, read-out: IC50 Average
[8] = replicate 1, read-out: IC50 (1)
[9] = replicate 2, read-out: IC50 (2)

| SMILES | viability at 0.1 µM (MCF-7 cells; 0.1 µM (DMSO 0.002%)) [%] | viability at 1 µM (MCF-7 cells; 1 µM (DMSO 0.02%)) [%] | viability at 10 µM (MCF-7 cells; 10 µM (DMSO 0.2%)) [%] | A490 ave (MCF-7 cells; [2]) | A490 ave (MCF-7 cells; [3]) | A490 ave (MCF-7 cells; [4]) | viability at 0.04 µM [1, 5] [%] | viability at 0.04 µM [1, 6] [%] | viability at 0.2 µM [1, 5] [%] | viability at 0.2 µM [1, 6] [%] | viability at 1 µM [1, 5] [%] | viability at 1 µM [1, 6] [%] | viability at 4 µM [1, 5] [%] | viability at 4 µM [1, 6] [%] | viability at 10 µM [1, 5] [%] | viability at 10 µM [1, 6] [%] | viability at 20 µM [1, 5] [%] | viability at 20 µM [1, 6] [%] | Luminescence Raw1 (l(2)mbn cells; 0.04 µM) | Luminescence Raw2 (l(2)mbn cells; 0.04 µM) | also measured |
| --- | --- | --- | --- | --- | --- | --- | --- | --- | --- | --- | --- | --- | --- | --- | --- | --- | --- | --- | --- | --- | --- |
| C=C1CC[C@@H]2[C@](C)(CC[C@H]3O[C@H](C=C(C)C)C[C@@]23C)[C@@H]1Cc1c(OC)oc(CO)c(C)c1=O [Compound 20] | 90 | 45.3 | 29.4 | 0.958 | 0.500 | 0.308 | 95.7 | 102 | 106 | 112 | 71.1 | 80.9 | 1.55 | 2.17 | 1.88 | 1.76 | 1.4 | 2.05 | 6010744 | 6416731 | cytotoxicity against the bulk of MCF-7 cells (MCF-7 cells): dose-dependent cytotoxicity; Luminescence Raw1 (l(2)mbn cells; 0.2 µM): 6637959; Luminescence Raw2 (l(2)mbn cells; 0.2 µM): 7047592; Luminescence Raw1 (l(2)mbn cells; 1 µM): 4464964; Luminescence Raw2 (l(2)mbn cells; 1 µM): 5080853; Luminescence Raw1 (l(2)mbn cells; 4 µM): 97218; Luminescence Raw2 (l(2)mbn cells; 4 µM): 136159; Luminescence Raw1 (l(2)mbn cells; 10 µM): 118130; Luminescence Raw2 (l(2)mbn cells; 10 µM): 110559; Luminescence Raw1 (l(2)mbn cells; 20 µM): 87844; Luminescence Raw2 (l(2)mbn cells; 20 µM): 128947; IC50 (l(2)mbn cells; [7]): 1450 nM; IC50 (l(2)mbn cells; average±SEM, read-out: IC50): 1450 ± 130 nM; IC50 (l(2)mbn cells; [8]): 1320 nM; IC50 (l(2)mbn cells; [9]): 1580 nM; Cytotoxicity (MAGI cells): >10 µM |
| C=C1CCC2C(C)(CCC=C(C)C)C(O)CCC2(C)C1Cc1c(OC)oc(C)c(C(=O)OC)c1=O (stereo not shown) [Compound 14] | 74.8 | 75.6 | 19.7 | 0.796 | 0.834 | 0.207 | 137 | 114 | 136 | 147 | 131 | 146 | 18.5 | 16 | 10.1 | 9.05 | 7.49 | 6.87 | 3506221 | 2917163 | Luminescence Raw1 (l(2)mbn cells; 0.2 µM): 3483495; Luminescence Raw2 (l(2)mbn cells; 0.2 µM): 3765235; Luminescence Raw1 (l(2)mbn cells; 1 µM): 3358321; Luminescence Raw2 (l(2)mbn cells; 1 µM): 3748640; Luminescence Raw1 (l(2)mbn cells; 4 µM): 473811; Luminescence Raw2 (l(2)mbn cells; 4 µM): 410710; Luminescence Raw1 (l(2)mbn cells; 10 µM): 260351; Luminescence Raw2 (l(2)mbn cells; 10 µM): 232227; Luminescence Raw1 (l(2)mbn cells; 20 µM): 192204; Luminescence Raw2 (l(2)mbn cells; 20 µM): 176340; IC50 (l(2)mbn cells; [7]): 3740 nM; IC50 (l(2)mbn cells; average±SEM, read-out: IC50): 3740 ± 140 nM; IC50 (l(2)mbn cells; [8]): 3600 nM; IC50 (l(2)mbn cells; [9]): 3880 nM; Cytotoxicity (MAGI cells): >10 µM |
| C=C1CC[C@H]2[C@]3(C)C[C@@H](C=C(C)C)O[C@H]3CC[C@]2(C)[C@@H]1Cc1c(O)c(C)c(C)oc1=O [Compound 5, subglutinol A] | 45.9 | 45.5 | 8.4 | 0.489 | 0.503 | 0.088 | 139 | 137 | 19.9 | 17 | 8.99 | 8.5 | 8.31 | 7.53 | 8.2 | 8.05 | 7.67 | 7.74 | 3571044 | 3503586 | cytotoxicity against the bulk of MCF-7 cells (MCF-7 cells): dose-dependent cytotoxicity; Luminescence Raw1 (l(2)mbn cells; 0.2 µM): 510842; Luminescence Raw2 (l(2)mbn cells; 0.2 µM): 436923; Luminescence Raw1 (l(2)mbn cells; 1 µM): 230676; Luminescence Raw2 (l(2)mbn cells; 1 µM): 218056; Luminescence Raw1 (l(2)mbn cells; 4 µM): 213369; Luminescence Raw2 (l(2)mbn cells; 4 µM): 193177; Luminescence Raw1 (l(2)mbn cells; 10 µM): 210485; Luminescence Raw2 (l(2)mbn cells; 10 µM): 206518; Luminescence Raw1 (l(2)mbn cells; 20 µM): 196783; Luminescence Raw2 (l(2)mbn cells; 20 µM): 198586; IC50 (l(2)mbn cells; [7]): 190 nM; IC50 (l(2)mbn cells; average±SEM, read-out: IC50): 190 ± 10 nM; IC50 (l(2)mbn cells; [8]): 194 nM; IC50 (l(2)mbn cells; [9]): 180 nM; Cytotoxicity (MAGI cells): >10 µM |
| C=C1CC[C@@H]2[C@](C)(CC[C@H]3O[C@H](C=C(C)C)C[C@@]23C)[C@@H]1Cc1c(O)c(C)c(C)oc1=O [Compound 10, higginsianin A] | 62.9 | 94.3 | 17.9 | 0.669 | 1.042 | 0.188 | 113 | 127 | 108 | 125 | 20.3 | 41.9 | 7.39 | 9.05 | 6.87 | 7.85 | 5.83 | 6.46 | 2899849 | 3256235 | Luminescence Raw1 (l(2)mbn cells; 0.2 µM): 2762422; Luminescence Raw2 (l(2)mbn cells; 0.2 µM): 3200684; Luminescence Raw1 (l(2)mbn cells; 1 µM): 521407; Luminescence Raw2 (l(2)mbn cells; 1 µM): 1075282; Luminescence Raw1 (l(2)mbn cells; 4 µM): 189680; Luminescence Raw2 (l(2)mbn cells; 4 µM): 232227; Luminescence Raw1 (l(2)mbn cells; 10 µM): 176340; Luminescence Raw2 (l(2)mbn cells; 10 µM): 201579; Luminescence Raw1 (l(2)mbn cells; 20 µM): 149658; Luminescence Raw2 (l(2)mbn cells; 20 µM): 165883; IC50 (l(2)mbn cells; [7]): 630 nM; IC50 (l(2)mbn cells; average±SEM, read-out: IC50): 630 ± 100 nM; IC50 (l(2)mbn cells; [8]): 529 nM; IC50 (l(2)mbn cells; [9]): 734 nM; Cytotoxicity (MAGI cells): >10 µM |
